Columns and labels:
IDO1 [1] = biological target: T1, IDO1 (Homo sapiens, UniProt P14902); experiment: Hela cell-based IDO1 functional assay (kynurenine readout, IFN-γ induced); details: Hela cells, 100 ng/ml human IFN-γ, 18 h; Table 1 and text
T1 construct: host or cells: HeLa cells, IDO1 induced with 100 ng/ml human IFN-γ
Method: To perform the Hela cell based IDO1 assay, Hela cells were seeded at 50,000 cells per well into 96-well microplate in 100 μl of DMEM 10% fetal bovine serum 1% Penicillin-Streptomycin. Cells were incubated at 37°C and 5% CO2 overnight.
The next day 100 μl per well of diluted inhibitor in growth medium was added at a final concentration of 100 ng/ml human IFN-γ. Cells were incubated at 37°C in a CO2 incubator for 18 h. The next day 140 μl of medium was moved into a new 96-well plate and 20 μl of 3.05 N trichloroacetic acid (TCA) was added. The plate was incubated at 50°C for 30 min to hydrolyze N-formylkynurenine. The plate was then centrifuged at 2,500 rpm for 10 min to remove sediments. 100 μl of supernatant per well was transferred to another 96-well plate and mixed with 100 μl of 2% (w/v) 4-(Dimethylamino)benzaldehyde in acetic acid. The plate was incubated at room temperature for 10 min, the yellow color derived from kynurenine was recorded by measuring absorbance at 480 nm using a microplate reader (PerkinElmer, USA).
To investigate the IDO1 inhibition activities of the synthesized derivatives, all the new compounds and icotinib were screened via Hela cell-based functional assay using methods described in the literature ([Yue et al., 2009]; [Malachowski et al., 2016]; [Qian et al., 2016]).

[2] = system: Human renal epithelial cell (293T); experiment: Cytotoxicity assay, Cell Counting Kit-8 (CCK8), 72 h; format: cell-based; details: HEK-293T, 293T cells, CCK-8, 72 h
Method: Cytotoxity of the chosen compounds was evaluated by the Cell Counting Kit-8 (CCK8, DOJINDO, Japan) assay. The cells were seeded at a density of 2,000 cells per well into 96-well microplate in 100 μl of growth medium. Cells were incubated at 37°C and 5% CO2 overnight. The next day, 100 μl per well of diluted inhibitor in growth medium was added with the final concentration from 0.1nM to 100 μM. The cells were treated with DMSO as control. A series of dilutions were made in 0.1% DMSO in assay medium so that the final concentration of DMSO was 0.1% in all the treatments. Cells were incubated at 37°C and 5% CO2 for 72 h. Then, 10 μl of CCK8 was added to each well. The plates were incubated at 37°C for 2 h, and the plates were recorded by measuring the absorbance at 450 nm with the reference wavelength of 630 nm using an EnVisionMultilabel Reader (PerkinElmer). The IC50 values were calculated and determined by the concentration causing a half-maximal percent activity. All assays were conducted with three parallel samples and three repetitions.
Next, several compounds with submicromolar level of IDO1 inhibitory activities were chosen for further study. Human renal epithelial cell (293T) was chosen for CCK-8 assay to evaluation the bioactivity of these compounds.

IDO1 [3] = system: IDO1; design: method as in Nelp et al., 2018; details: previously reported; ref Nelp et al., 2018; cited from earlier work

T1 sequence (P14902 whole entry): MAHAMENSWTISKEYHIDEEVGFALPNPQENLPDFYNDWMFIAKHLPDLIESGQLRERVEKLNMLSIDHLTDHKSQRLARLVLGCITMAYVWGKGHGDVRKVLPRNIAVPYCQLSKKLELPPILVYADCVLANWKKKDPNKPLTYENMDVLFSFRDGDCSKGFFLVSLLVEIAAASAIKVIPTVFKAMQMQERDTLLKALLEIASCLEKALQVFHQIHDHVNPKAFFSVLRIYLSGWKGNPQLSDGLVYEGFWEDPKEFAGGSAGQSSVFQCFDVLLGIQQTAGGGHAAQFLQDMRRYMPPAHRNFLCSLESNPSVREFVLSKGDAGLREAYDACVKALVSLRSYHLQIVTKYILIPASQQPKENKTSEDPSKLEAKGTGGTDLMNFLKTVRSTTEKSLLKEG

Row | IC50 (IDO1 [1]) [µM] | SMILES | IC50 [2] [µM] | IC50 (IDO1 [3]) [nM]
1 | 2.79 ± 0.46 | Brc1ccc(-n2cc(-c3cccc(Nc4ncnc5cc6c(cc45)OCCOCCOCCO6)c3)nn2)cc1 [a10, {3-[1-(4-Bromo-phenyl)-1H-[1,2,3]triazol-4-yl]-phenyl}-(7,8,10,11,13,14-hexahydro-6,9,12,15-tetraoxa-1,3-diaza-cyclododeca[b]naphthalen-4-yl)-amine] |  | 
2 | 4.25 ± 0.08 | Fc1cccc(-n2cc(-c3cccc(Nc4ncnc5cc6c(cc45)OCCOCCOCCO6)c3)nn2)c1 [a1, {3-[1-(3-Fluoro-phenyl)-1H-[1,2,3]triazol-4-yl]-phenyl}-(7,8,10,11,13,14-hexahydro-6,9,12,15-tetraoxa-1,3-diaza-cyclododeca[b]naphthalen-4-yl)-amine] |  | 
3 | 0.56 ± 0.16 | c1ccc(Cn2cc(-c3cccc(Nc4ncnc5cc6c(cc45)OCCOCCOCCO6)c3)nn2)cc1 [a18, [3-(1-Benzyl-1H-[1,2,3]triazol-4-yl)-phenyl]-(7,8,10,11,13,14-hexahydro-6,9,12,15-tetraoxa-1,3-diaza-cyclododeca[b]naphthalen-4-yl)-amine] | 3.08 ± 0.59 | 
4 | 0.79 ± 0.21 | Cc1ccccc1Cn1cc(-c2cccc(Nc3ncnc4cc5c(cc34)OCCOCCOCCO5)c2)nn1 [a14, (7,8,10,11,13,14-Hexahydro-6,9,12,15-tetraoxa-1,3-diaza-cyclododeca[b]naphthalen-4-yl)-{3-[1-(2-methyl-benzyl)-1H-[1,2,3]triazol-4-yl]-phenyl}-amine] | 3.35 ± 0.89 | 
5 | 4.88 ± 0.42 | Clc1ccccc1-n1cc(-c2cccc(Nc3ncnc4cc5c(cc34)OCCOCCOCCO5)c2)nn1 [a5, {3-[1-(2-Chloro-phenyl)-1H-[1,2,3]triazol-4-yl]-phenyl}-(7,8,10,11,13,14-hexahydro-6,9,12,15-tetraoxa-1,3-diaza-cyclododeca[b]naphthalen-4-yl)-amine] |  | 
6 | 1.32 ± 0.17 | COc1ccccc1-n1cc(-c2cccc(Nc3ncnc4cc5c(cc34)OCCOCCOCCO5)c2)nn1 [a4, (7,8,10,11,13,14-Hexahydro-6,9,12,15-tetraoxa-1,3-diaza-cyclododeca[b]naphthalen-4-yl)-{3-[1-(2-methoxy-phenyl)-1H-[1,2,3]triazol-4-yl]-phenyl}-amine] |  | 
7 | 2.57 ± 0.44 | C#Cc1cccc(Nc2ncnc3cc4c(cc23)OCCOCCOCCO4)c1 [icotinib] |  | 
8 | 1 ± 0.49 | Brc1ccccc1-n1cc(-c2cccc(Nc3ncnc4cc5c(cc34)OCCOCCOCCO5)c2)nn1 [a11, {3-[1-(2-Bromo-phenyl)-1H-[1,2,3]triazol-4-yl]-phenyl}-(7,8,10,11,13,14-hexahydro-6,9,12,15-tetraoxa-1,3-diaza-cyclododeca[b]naphthalen-4-yl)-amine] |  | 
9 | 1.41 ± 0.08 | COc1cccc(-n2cc(-c3cccc(Nc4ncnc5cc6c(cc45)OCCOCCOCCO6)c3)nn2)c1 [a9, (7,8,10,11,13,14-Hexahydro-6,9,12,15-tetraoxa-1,3-diaza-cyclododeca[b]naphthalen-4-yl)-{3-[1-(3-methoxy-phenyl)-1H-[1,2,3]triazol-4-yl]-phenyl}-amine] |  | 
10 | 4.62 ± 0.19 | Fc1ccccc1Cn1cc(-c2cccc(Nc3ncnc4cc5c(cc34)OCCOCCOCCO5)c2)nn1 [a13, {3-[1-(2-Fluoro-benzyl)-1H-[1,2,3]triazol-4-yl]-phenyl}-(7,8,10,11,13,14-hexahydro-6,9,12,15-tetraoxa-1,3-diaza-cyclododeca[b]naphthalen-4-yl)-amine] |  | 
11 | 2.5 ± 0.43 | Ic1ccccc1-n1cc(-c2cccc(Nc3ncnc4cc5c(cc34)OCCOCCOCCO5)c2)nn1 [a8, (7,8,10,11,13,14-Hexahydro-6,9,12,15-tetraoxa-1,3-diaza-cyclododeca[b]naphthalen-4-yl)-{3-[1-(2-iodo-phenyl)-1H-[1,2,3]triazol-4-yl]-phenyl}-amine] |  | 
12 | 1.5 ± 0.45 | Brc1ccccc1Cn1cc(-c2cccc(Nc3ncnc4cc5c(cc34)OCCOCCOCCO5)c2)nn1 [a19, {3-[1-(2-Bromo-benzyl)-1H-[1,2,3]triazol-4-yl]-phenyl}-(7,8,10,11,13,14-hexahydro-6,9,12,15-tetraoxa-1,3-diaza-cyclododeca[b]naphthalen-4-yl)-amine] |  | 
13 | 0.59 ± 0.05 | Cc1ccc(Cn2cc(-c3cccc(Nc4ncnc5cc6c(cc45)OCCOCCOCCO6)c3)nn2)cc1 [a15, (7,8,10,11,13,14-Hexahydro-6,9,12,15-tetraoxa-1,3-diaza-cyclododeca[b]naphthalen-4-yl)-{3-[1-(4-methyl-benzyl)-1H-[1,2,3]triazol-4-yl]-phenyl}-amine] | 0.16 ± 0.05 | 
14 | 0.68 ± 0.44 | Brc1cc(Br)cc(Cn2cc(-c3cccc(Nc4ncnc5cc6c(cc45)OCCOCCOCCO6)c3)nn2)c1 [a21, {3-[1-(3,5-Dibromo-benzyl)-1H-[1,2,3]triazol-4-yl]-phenyl}-(7,8,10,11,13,14-hexahydro-6,9,12,15-tetraoxa-1,3-diaza-cyclododeca[b]naphthalen-4-yl)-amine] | 0.74 ± 0.15 | 
15 | > 100 | FC(F)(F)c1ccc(-n2cc(-c3cccc(Nc4ncnc5cc6c(cc45)OCCOCCOCCO6)c3)nn2)cc1 [a12, (7,8,10,11,13,14-Hexahydro-6,9,12,15-tetraoxa-1,3-diaza-cyclododeca[b]naphthalen-4-yl)-{3-[1-(4-trifluoromethyl-phenyl)-1H-[1,2,3]triazol-4-yl]-phenyl}-amine] |  | 
16 | 0.76 ± 0.07 | COc1cccc(Cn2cc(-c3cccc(Nc4ncnc5cc6c(cc45)OCCOCCOCCO6)c3)nn2)c1 [a20, (7,8,10,11,13,14-Hexahydro-6,9,12,15-tetraoxa-1,3-diaza-cyclododeca[b]naphthalen-4-yl)-{3-[1-(3-methoxy-benzyl)-1H-[1,2,3]triazol-4-yl]-phenyl}-amine] | 3.3 ± 1.3 | 
17 | 0.77 ± 0.13 | c1ccc(-n2cc(-c3cccc(Nc4ncnc5cc6c(cc45)OCCOCCOCCO6)c3)nn2)cc1 [a6, (7,8,10,11,13,14-Hexahydro-6,9,12,15-tetraoxa-1,3-diaza-cyclododeca[b]naphthalen-4-yl)-[3-(1-phenyl-1H-[1,2,3]triazol-4-yl)-phenyl]-amine] | 42.8 ± 11.8 | 
18 | 2.82 ± 0.26 | Clc1cccc(-n2cc(-c3cccc(Nc4ncnc5cc6c(cc45)OCCOCCOCCO6)c3)nn2)c1 [a7, {3-[1-(3-Chloro-phenyl)-1H-[1,2,3]triazol-4-yl]-phenyl}-(7,8,10,11,13,14-hexahydro-6,9,12,15-tetraoxa-1,3-diaza-cyclododeca[b]naphthalen-4-yl)-amine] | 3.1 ± 0.2 | 
19 | 18.2 ± 1.47 | Fc1ccc(-n2cc(-c3cccc(Nc4ncnc5cc6c(cc45)OCCOCCOCCO6)c3)nn2)cc1 [a3, {3-[1-(4-Fluoro-phenyl)-1H-[1,2,3]triazol-4-yl]-phenyl}-(7,8,10,11,13,14-hexahydro-6,9,12,15-tetraoxa-1,3-diaza-cyclododeca[b]naphthalen-4-yl)-amine] |  | 
20 | 0.37 ± 0.02 | Brc1cccc(Cn2cc(-c3cccc(Nc4ncnc5cc6c(cc45)OCCOCCOCCO6)c3)nn2)c1 [a17, {3-[1-(3-Bromo-benzyl)-1H-[1,2,3]triazol-4-yl]-phenyl}-(7,8,10,11,13,14-hexahydro-6,9,12,15-tetraoxa-1,3-diaza-cyclododeca[b]naphthalen-4-yl)-amine] | 3.1 ± 0.2 | 
21 | 0.81 ± 0.35 | Fc1ccc(CCn2cc(-c3cccc(Nc4ncnc5cc6c(cc45)OCCOCCOCCO6)c3)nn2)cc1 [a22, (3-{1-[2-(4-Fluoro-phenyl)-ethyl]-1H-[1,2,3]triazol-4-yl}-phenyl)-(7,8,10,11,13,14-hexahydro-6,9,12,15-tetraoxa-1,3-diaza-cyclododeca[b]naphthalen-4-yl)-amine] | 2.6 ± 0.17 | 
23 | 1.51 ± 0.11 | Ic1ccccc1Cn1cc(-c2cccc(Nc3ncnc4cc5c(cc34)OCCOCCOCCO5)c2)nn1 [a16, (7,8,10,11,13,14-Hexahydro-6,9,12,15-tetraoxa-1,3-diaza-cyclododeca[b]naphthalen-4-yl)-{3-[1-(2-iodo-benzyl)-1H-[1,2,3]triazol-4-yl]-phenyl}-amine] |  | 
24 | 2.9 ± 0.37 | Clc1ccc(-n2cc(-c3cccc(Nc4ncnc5cc6c(cc45)OCCOCCOCCO6)c3)nn2)cc1 [a2, {3-[1-(4-Chloro-phenyl)-1H-[1,2,3]triazol-4-yl]-phenyl}-(7,8,10,11,13,14-hexahydro-6,9,12,15-tetraoxa-1,3-diaza-cyclododeca[b]naphthalen-4-yl)-amine] |  | 

Reference: publication PMC7555427, “Discovery of Icotinib-1,2,3-Triazole Derivatives as IDO1 Inhibitors” (Frontiers in Pharmacology, 2020)
